Measured values: PMC4507791 (Drug Design, Development and Therapy, 2015)
Values joined by “and” are separate entries in the source; they are usually repeats but may differ in a detail not shown here. Identical values can stand only once.

What was measured:
recombinant human MAO-A = target: T1, recombinant human MAO-A (Homo sapiens, UniProt P21397); assay: IC50 determination, inhibition of recombinant human MAO-A; type: biochemical; details: mean ± SD of triplicate determinations
T1 sequence (P21397 1-527): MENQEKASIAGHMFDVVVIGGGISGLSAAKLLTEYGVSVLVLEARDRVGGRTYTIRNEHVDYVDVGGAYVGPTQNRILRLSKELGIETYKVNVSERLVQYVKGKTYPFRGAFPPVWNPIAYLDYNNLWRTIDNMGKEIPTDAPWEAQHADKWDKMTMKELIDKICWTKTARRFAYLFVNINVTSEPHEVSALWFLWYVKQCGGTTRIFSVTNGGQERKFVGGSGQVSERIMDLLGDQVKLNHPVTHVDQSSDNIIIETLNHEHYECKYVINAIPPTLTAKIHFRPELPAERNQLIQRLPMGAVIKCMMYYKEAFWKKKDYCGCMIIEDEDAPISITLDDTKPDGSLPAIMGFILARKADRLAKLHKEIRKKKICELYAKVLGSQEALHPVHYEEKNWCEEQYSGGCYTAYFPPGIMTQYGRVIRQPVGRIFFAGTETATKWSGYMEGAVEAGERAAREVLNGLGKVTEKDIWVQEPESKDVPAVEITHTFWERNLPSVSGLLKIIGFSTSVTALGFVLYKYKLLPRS

MAO-B [1] = target: T2, MAO-B (Homo sapiens, UniProt P27338); assay: IC50 determination, inhibition of recombinant human MAO-B; type: biochemical; details: for SI (selectivity index, IC50(MAO-A)/IC50(MAO-B)): selectivity for the MAO-B isoform
T2 sequence (P27338 1-520): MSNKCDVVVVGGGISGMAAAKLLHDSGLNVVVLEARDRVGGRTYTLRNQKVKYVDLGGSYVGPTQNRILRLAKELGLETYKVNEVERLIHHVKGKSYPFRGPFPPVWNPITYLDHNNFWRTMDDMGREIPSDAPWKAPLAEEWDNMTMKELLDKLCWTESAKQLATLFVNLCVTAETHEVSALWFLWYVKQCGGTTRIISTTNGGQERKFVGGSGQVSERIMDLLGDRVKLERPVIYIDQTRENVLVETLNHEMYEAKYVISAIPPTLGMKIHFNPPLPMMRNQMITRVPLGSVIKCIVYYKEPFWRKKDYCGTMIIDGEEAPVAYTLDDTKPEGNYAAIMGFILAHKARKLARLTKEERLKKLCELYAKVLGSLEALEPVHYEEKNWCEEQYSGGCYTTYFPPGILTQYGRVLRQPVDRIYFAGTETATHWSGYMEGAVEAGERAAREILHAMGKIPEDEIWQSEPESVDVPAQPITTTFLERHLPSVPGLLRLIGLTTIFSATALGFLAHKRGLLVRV

human MAO-B = human MAO-B (Homo sapiens, UniProt P27338); details: Lineweaver-Burk graphs linear, intersect on y axis
MAO-B [2] = target: T2, MAO-B

| SMILES | IC50 (recombinant human MAO-A) | SI (selectivity index, IC50(MAO-A)/IC50(MAO-B)) (MAO-B [1]) | IC50 (MAO-B [1]) | Mode of MAO-B inhibition (human MAO-B) | Reversibility of MAO-B inhibition by dialysis (MAO-B [2]) | Residual MAO-B catalytic activity after dialysis (% of negative control value) (MAO-B [2]; inhibitor at 4× IC50, incubated 15 minutes, dialyzed for 24 hours) | Fold weaker as MAO-B inhibitor than compound 2b (MAO-B [1]; relative to weakest inhibitor of the series, 2b (IC50 = 0.157 µM)) |
| --- | --- | --- | --- | --- | --- | --- | --- |
| CC(=O)c1ccc(OCc2ccccc2)cc1O [Compound 2a, 2-Acetyl-5-benzyloxyphenol] | 8360 ± 442 nM | 1,194 | – | – | – | – | – |
| CC(=O)c1ccc(OCCc2ccccc2)cc1O [Compound 2b, 2-Acetyl-5-(2-phenylethoxy)phenol] | 4700 ± 716 nM | 30 | 157 ± 41 nM | – | – | – | – |
| CC(=O)c1ccc(OCc2cccc(F)c2)cc1O [Compound 2d, 2-Acetyl-5-(3-fluorobenzyloxy)phenol] | > 17700 nM | – | – | – | – | – | – |
| CC(=O)c1ccc(OCc2ccc(F)cc2)cc1O [Compound 2e, 2-Acetyl-5-(4-fluorobenzyloxy)phenol] | – | – | – | competitive inhibitor | only partially reversed | 52% | – |
| CC(=O)c1ccc(OCc2cccc(Cl)c2)cc1O [Compound 2f, 2-Acetyl-5-(3-chlorobenzyloxy)phenol] | > 17700 nM | – | – | – | – | – | – |
| CC(=O)c1ccc(OCc2ccc(Cl)cc2)cc1O [Compound 2g, 2-Acetyl-5-(4-chlorobenzyloxy)phenol] | 1810 ± 284 nM | – | – | – | – | – | – |
| CCCCOc1ccc(C(C)=O)c(O)c1 [Compound 2n, 2-Acetyl-5-butoxyphenol] | 8650 ± 1040 nM | 84 | 103 ± 15 nM | – | – | – | – |
| CCCCCCCOc1ccc(C(C)=O)c(O)c1 [Compound 2o, 2-Acetyl-5-heptyloxyphenol] | 60400 ± 8000 nM | 387 | 156 ± 50 nM | – | – | – | – |
| CCC(=O)c1ccc(OCc2ccccc2)cc1O [Compound 3b, 2-Propanoyl-5-benzyloxyphenol] | > 17700 nM and 38200 nM | 9,550 | 4 ± 1 nM | – | – | – | – |
| CC(=O)c1ccc(O)cc1O [Compound 4, 2′,4′-dihydroxyacetophenone, reference compound] | 47700 ± 3120 nM | 1.2 | 39700 ± 5030 nM | – | – | – | 250 fold |

Other lines, results leading:

| IC50 (recombinant human MAO-A) | SI (selectivity index, IC50(MAO-A)/IC50(MAO-B)) (MAO-B [1]) | IC50 (MAO-B [1]) | Mode of MAO-B inhibition (human MAO-B) | Reversibility of MAO-B inhibition by dialysis (MAO-B [2]) | Residual MAO-B catalytic activity after dialysis (% of negative control value) (MAO-B [2]; inhibitor at 4× IC50, incubated 15 minutes, dialyzed for 24 hours) | Fold weaker as MAO-B inhibitor than compound 2b (MAO-B [1]; relative to weakest inhibitor of the series, 2b (IC50 = 0.157 µM)) | SMILES |
| --- | --- | --- | --- | --- | --- | --- | --- |
| 10700 ± 2300 nM | 178 | 60 ± 13 nM | – | – | – | – | CC(=O)c1ccc(OCCCc2ccccc2)cc1O [Compound 2c, 2-Acetyl-5-(3-phenylpropoxy)phenol] |
| 26900 ± 1800 nM | 1,921 | 14 ± 2 nM | – | – | – | – | CC(=O)c1ccc(OCc2cccc(I)c2)cc1O [Compound 2h, 2-Acetyl-5-(3-iodobenzyloxy)phenol] |
| 17700 ± 2800 nM | 328 | 54 ± 10 nM | – | – | – | – | CC(=O)c1ccc(OCc2cccc(C)c2)cc1O [Compound 2i, 2-Acetyl-5-(3-methylbenzyloxy)phenol] |
| 25200 ± 939 nM | 969 | 26 ± 2 nM | – | – | – | – | CC(=O)c1ccc(OCc2ccc(C)cc2)cc1O [Compound 2j, 2-Acetyl-5-(4-methylbenzyloxy)phenol] |
| 1640 ± 213 nM | 71 | 23 ± 0.3 nM | – | – | – | – | CC(=O)c1ccc(OCc2cccc(C#N)c2)cc1O [Compound 2k, 2-Acetyl-5-(3-cyanobenzyloxy)phenol] |
| 2720 ± 352 nM | 680 | 4 ± 1 nM | – | – | – | – | CC(=O)c1ccc(OCc2ccc(C#N)cc2)cc1O [Compound 2l, 2-Acetyl-5-(4-cyanobenzyloxy)phenol] |
| 13600 ± 238 nM | 1,360 | 10 ± 3 nM | – | – | – | – | CC(=O)c1ccc(OCc2ccc(C(F)(F)F)cc2)cc1O [Compound 2m, 2-Acetyl-5-[4-(trifluoromethyl)benzyloxy] phenol] |
| 19500 ± 2470 nM | 722 | 27 ± 3 nM | – | – | – | – | CC(=O)c1ccc(OCc2ccccc2)cc1 [Compound 3a, 4′-Benzyloxyacetophenone] |
